Where “and” joins values, the source holds several entries; their conditions need not be identical. Identical values can stand only once. Results filed as inconclusive are left out.
System: BDF1 mice, s.c. Lewis lung carcinoma, T/C %
Assay: NCI In Vivo Anticancer Drug Screen. Data for tumor model Lewis Lung Carcinoma (subcutaneous) in B6D2F1 (BDF1) mice
Method in brief: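 Antitumor effect in vivo is scored from survival or tumor burden, reported as treated relative to vehicle controls.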

[1] = endpoint: median survival time, dose: 12.5 mg/kg/injection, schedule: Q01DX009 (ip), vehicle: Klucel (hydroxypropylcellulose) (HPC), higher = longer survival
[2] = endpoint: median survival time, dose: 50.0 mg/kg/injection, schedule: Q01DX009 (ip), vehicle: Klucel (hydroxypropylcellulose) (HPC), higher = longer survival

CN(C)C(=O)N(CCCl)N=O
T/C (endpoint: median survival time, dose: 6.25 mg/kg/injection, schedule: Q01DX001 (ip), vehicle: water, higher = longer survival): 102 % of control
T/C (endpoint: median survival time, dose: 12.5 mg/kg/injection, schedule: Q01DX001 (ip), vehicle: water, higher = longer survival): 112 % of control

O=NN(CCF)C(=O)NC1CCSc2ccccc21 (centres undefined)
T/C (endpoint: median survival time, dose: 24.0 mg/kg/injection, schedule: Q01DX001 (ip), vehicle: saline with Tween-80, higher = longer survival): 88 % of control

O=c1[nH]c(=O)n(C2CC(O)C(CO)O2)cc1C(F)(F)F (centres undefined)
T/C (endpoint: median survival time, dose: 2.5 mg/kg/injection, schedule: Q01DX009 (ip), vehicle: saline, higher = longer survival): 119 % of control
T/C (endpoint: median survival time, dose: 5.0 mg/kg/injection, schedule: Q01DX009 (ip), vehicle: saline, higher = longer survival): 103 % of control
T/C (endpoint: median survival time, dose: 10.0 mg/kg/injection, schedule: Q01DX009 (ip), vehicle: saline, higher = longer survival): 118 % of control

CCO/C=C1\SC(=S)N(c2ccccc2OC)C1=O
T/C (endpoint: median survival time, dose: 1.56 mg/kg/injection, schedule: Q01DX009 (ip), vehicle: Klucel (hydroxypropylcellulose) (HPC), higher = longer survival): 100 % of control
T/C (endpoint: median survival time, dose: 3.12 mg/kg/injection, schedule: Q01DX009 (ip), vehicle: Klucel (hydroxypropylcellulose) (HPC), higher = longer survival): 98 % of control
T/C (endpoint: median survival time, dose: 6.25 mg/kg/injection, schedule: Q01DX009 (ip), vehicle: Klucel (hydroxypropylcellulose) (HPC), higher = longer survival): 109 % of control
T/C [1]: 101 % of control

CC(=O)O[C@]1(C(C)=O)CC[C@H]2[C@@H]3C[C@H](C)C4=CC(=O)CC[C@]4(C)[C@H]3CC[C@@]21C
T/C [2]: 203 % of control
T/C (endpoint: median survival time, dose: 100.0 mg/kg/injection, schedule: Q01DX009 (ip), vehicle: Klucel (hydroxypropylcellulose) (HPC), higher = longer survival): 204 % of control
T/C (endpoint: median survival time, dose: 200.0 mg/kg/injection, schedule: Q01DX009 (ip), vehicle: Klucel (hydroxypropylcellulose) (HPC), higher = longer survival): 119 % of control
T/C (endpoint: median survival time, dose: 400.0 mg/kg/injection, schedule: Q01DX009 (ip), vehicle: Klucel (hydroxypropylcellulose) (HPC), higher = longer survival): 203 % of control

CCOC(=O)C(CC(C)C)NC(=O)C(Cc1ccc(N(CCCl)CCCl)cc1)NC(C)=O (centres undefined)
T/C (endpoint: median survival time, dose: 1.0 mg/kg/injection, schedule: Q01DX009 (ip), vehicle: saline with Tween-80, higher = longer survival): 88 % of control
T/C (endpoint: median survival time, dose: 2.0 mg/kg/injection, schedule: Q01DX009 (ip), vehicle: saline with Tween-80, higher = longer survival): 95 % of control
T/C (endpoint: median survival time, dose: 4.0 mg/kg/injection, schedule: Q01DX009 (ip), vehicle: saline with Tween-80, higher = longer survival): 111 % of control
T/C (endpoint: median survival time, dose: 8.0 mg/kg/injection, schedule: Q01DX009 (ip), vehicle: saline with Tween-80, higher = longer survival): 108 % of control
T/C (endpoint: median survival time, dose: 16.0 mg/kg/injection, schedule: Q01DX009 (ip), vehicle: saline with Tween-80, higher = longer survival): 116 % of control

S=C([S][Sn]([c]1ccccc1)([c]1ccccc1)[c]1ccccc1)N1CCCCC1
T/C (endpoint: median survival time, dose: 3.12 mg/kg/injection, schedule: Q01DX009 (ip), vehicle: saline with Tween-80, higher = longer survival): 102 % of control
T/C (endpoint: median survival time, dose: 12.5 mg/kg/injection, schedule: Q01DX009 (ip), vehicle: saline with Tween-80, higher = longer survival): 94 % of control
T/C (endpoint: median survival time, dose: 25.0 mg/kg/injection, schedule: Q01DX009 (ip), vehicle: saline with Tween-80, higher = longer survival): 89 % of control

CC(C)=CCC/C(C)=C\CC/C(C)=C/CO
T/C (endpoint: mean tumor weight, dose: 6.25 mg/kg/injection, schedule: Q01DX011 (ip), vehicle: saline, higher = larger tumour): 85 % of control
T/C (endpoint: mean tumor weight, dose: 12.5 mg/kg/injection, schedule: Q01DX011 (ip), vehicle: saline, higher = larger tumour): 50 % of control
T/C (endpoint: mean tumor weight, dose: 25.0 mg/kg/injection, schedule: Q01DX011 (ip), vehicle: saline, higher = larger tumour): 67 % of control
T/C (endpoint: mean tumor weight, dose: 50.0 mg/kg/injection, schedule: Q01DX011 (ip), vehicle: saline, higher = larger tumour): 95 % of control

Nc1ccccc1N
T/C (endpoint: median survival time, dose: 25.0 mg/kg/injection, schedule: Q02DX009 (ip), vehicle: saline with Tween-80, higher = longer survival): 112 % of control
T/C (endpoint: median survival time, dose: 50.0 mg/kg/injection, schedule: Q02DX009 (ip), vehicle: saline with Tween-80, higher = longer survival): 118 % of control
T/C (endpoint: median survival time, dose: 100.0 mg/kg/injection, schedule: Q02DX009 (ip), vehicle: saline with Tween-80, higher = longer survival): 97 % of control
T/C (endpoint: median survival time, dose: 200.0 mg/kg/injection, schedule: Q02DX009 (ip), vehicle: saline with Tween-80, higher = longer survival): 111 % of control

c1cn[nH]c1
T/C (endpoint: mean tumor weight, dose: 20.0 mg/kg/injection, schedule: Q01DX011 (ip), vehicle: water, higher = larger tumour): 54 % of control
T/C (endpoint: mean tumor weight, dose: 40.0 mg/kg/injection, schedule: Q01DX011 (ip), vehicle: water, higher = larger tumour): 45 % of control
T/C (endpoint: mean tumor weight, dose: 80.0 mg/kg/injection, schedule: Q01DX011 (ip), vehicle: water, higher = larger tumour): 32 % of control

CN1CCCC1c1cccnc1 (centres undefined)
T/C (endpoint: mean tumor weight, dose: 1.0 mg/kg/injection, schedule: Q01DX011 (ip), vehicle: carboxymethylcellulose (CMC), higher = larger tumour): 62 % of control
T/C (endpoint: mean tumor weight, dose: 2.0 mg/kg/injection, schedule: Q01DX011 (ip), vehicle: carboxymethylcellulose (CMC), higher = larger tumour): 75 % of control
T/C (endpoint: mean tumor weight, dose: 4.0 mg/kg/injection, schedule: Q01DX011 (ip), vehicle: carboxymethylcellulose (CMC), higher = larger tumour): 72 % of control

CC(C)(c1ccccc1)c1ccc(O)cc1
T/C (endpoint: mean tumor weight, dose: 45.0 mg/kg/injection, schedule: Q01DX011 (ip), vehicle: carboxymethylcellulose (CMC), higher = larger tumour): 82 % of control
T/C (endpoint: mean tumor weight, dose: 65.0 mg/kg/injection, schedule: Q01DX011 (ip), vehicle: carboxymethylcellulose (CMC), higher = larger tumour): 60 % of control

NC(Cc1ccc(N(CCCl)CCCl)cc1)C(=O)O (centres undefined)
T/C (endpoint: mean tumor weight, dose: 1.5 mg/kg/injection, schedule: Q01DX011 (ip), vehicle: carboxymethylcellulose (CMC), higher = larger tumour): 75 % of control
T/C (endpoint: mean tumor weight, dose: 2.5 mg/kg/injection, schedule: Q01DX011 (ip), vehicle: saline, higher = larger tumour): 52 % of control
T/C (endpoint: mean tumor weight, dose: 3.0 mg/kg/injection, schedule: Q01DX011 (ip), vehicle: carboxymethylcellulose (CMC), higher = larger tumour): 50 % of control
T/C (endpoint: mean tumor weight, dose: 4.5 mg/kg/injection, schedule: Q01DX011 (ip), vehicle: carboxymethylcellulose (CMC), higher = larger tumour): 32 % of control
T/C (endpoint: mean tumor weight, dose: 5.0 mg/kg/injection, schedule: Q01DX011 (ip), vehicle: saline, higher = larger tumour): 33 % of control
T/C (endpoint: mean tumor weight, dose: 10.0 mg/kg/injection, schedule: Q01DX011 (ip), vehicle: saline, higher = larger tumour): 3 % of control

CS(C)=O
T/C (endpoint: mean tumor weight, dose: 250.0 mg/kg/injection, schedule: Q01DX011 (ip), vehicle: carboxymethylcellulose (CMC), higher = larger tumour): 68 % of control
T/C (endpoint: mean tumor weight, dose: 500.0 mg/kg/injection, schedule: Q01DX011 (ip), vehicle: carboxymethylcellulose (CMC), higher = larger tumour): 117 % of control
T/C (endpoint: mean tumor weight, dose: 1000.0 mg/kg/injection, schedule: Q01DX011 (ip), vehicle: carboxymethylcellulose (CMC), higher = larger tumour): 86 % of control
T/C (endpoint: mean tumor weight, dose: 2000.0 mg/kg/injection, schedule: Q01DX011 (ip), vehicle: carboxymethylcellulose (CMC), higher = larger tumour): 57 % of control
T/C (endpoint: median survival time, dose: 3.0 grams/kg/injection, schedule: Q01DX009 (ip), vehicle: saline, higher = longer survival): 101 % of control
T/C (endpoint: median survival time, dose: 6.0 grams/kg/injection, schedule: Q01DX009 (ip), vehicle: saline, higher = longer survival): 93 % of control

CC(C)(CC(=O)O)CC(=O)OCC(=O)[C@@]1(O)CC[C@H]2[C@@H]3CCC4=CC(=O)C=C[C@]4(C)[C@H]3[C@@H](O)C[C@@]21C
T/C (endpoint: mean tumor weight, dose: 40.0 mg/kg/injection, schedule: Q01DX011 (sc), vehicle: steriod suspending solution, higher = larger tumour): 69 % of control
T/C (endpoint: mean tumor weight, dose: 80.0 mg/kg/injection, schedule: Q01DX011 (sc), vehicle: steriod suspending solution, higher = larger tumour): 76 % of control
T/C (endpoint: mean tumor weight, dose: 160.0 mg/kg/injection, schedule: Q01DX011 (sc), vehicle: steriod suspending solution, higher = larger tumour): 60 % of control
T/C (endpoint: mean tumor weight, dose: 320.0 mg/kg/injection, schedule: Q01DX011 (sc), vehicle: steriod suspending solution, higher = larger tumour): 51 % of control and 57 % of control
T/C (endpoint: mean tumor weight, dose: 640.0 mg/kg/injection, schedule: Q01DX011 (sc), vehicle: steriod suspending solution, higher = larger tumour): 31 % of control

CC(=O)OC(C)C1C2=C(C(=O)CC1(C)O)C(=O)c1c(ccc(-c3ccc4c(c3O)C(=O)C3=C(C4=O)C(C(C)OC(C)=O)C(C)(O)CC3=O)c1O)C2=O (centres undefined)
T/C (endpoint: median survival time, dose: 0.1 mg/kg/injection, schedule: Q01DX009 (ip), vehicle: saline + alcohol, higher = longer survival): 112 % of control
T/C (endpoint: median survival time, dose: 0.38 mg/kg/injection, schedule: Q01DX009 (ip), vehicle: saline + alcohol, higher = longer survival): 122 % of control
T/C (endpoint: median survival time, dose: 0.75 mg/kg/injection, schedule: Q01DX009 (ip), vehicle: saline + alcohol, higher = longer survival): 119 % of control
T/C (endpoint: median survival time, dose: 1.5 mg/kg/injection, schedule: Q01DX009 (ip), vehicle: saline + alcohol, higher = longer survival): 97 % of control
T/C (endpoint: median survival time, dose: 1.56 mg/kg/injection, schedule: Q01DX009 (ip), vehicle: saline with Tween-80, higher = longer survival): 101 % of control

CCN(CC)CC(C)Nc1ccc(C)c2sc3ccccc3c(=O)c12 (centres undefined)
T/C (endpoint: mean tumor weight, dose: 10.0 mg/kg/injection, schedule: Q01DX011 (ip), vehicle: other, higher = larger tumour): 104 % of control
T/C (endpoint: mean tumor weight, dose: 40.0 mg/kg/injection, schedule: Q01DX011 (ip), vehicle: other, higher = larger tumour): 68 % of control
T/C (endpoint: mean tumor weight, dose: 160.0 mg/kg/injection, schedule: Q01DX011 (ip), vehicle: other, higher = larger tumour): 30 % of control

O=C1N(Cl)C(=O)C(c2ccc(Cl)cc2)(c2ccc(Cl)cc2)N1Cl
T/C (endpoint: mean tumor weight, dose: 17.0 mg/kg/injection, schedule: Q01DX011 (ip), vehicle: other, higher = larger tumour): 84 % of control
T/C (endpoint: mean tumor weight, dose: 33.0 mg/kg/injection, schedule: Q01DX011 (ip), vehicle: other, higher = larger tumour): 68 % of control
T/C (endpoint: mean tumor weight, dose: 50.0 mg/kg/injection, schedule: Q01DX011 (ip), vehicle: other, higher = larger tumour): 23 % of control
T/C (endpoint: mean tumor weight, dose: 75.0 mg/kg/injection, schedule: Q01DX011 (ip), vehicle: other, higher = larger tumour): 25 % of control
T/C (endpoint: mean tumor weight, dose: 112.0 mg/kg/injection, schedule: Q01DX011 (ip), vehicle: other, higher = larger tumour): 36 % of control
T/C (endpoint: mean tumor weight, dose: 224.0 mg/kg/injection, schedule: Q01DX011 (ip), vehicle: other, higher = larger tumour): 52 % of control
T/C [1]: 95 % of control
T/C (endpoint: median survival time, dose: 25.0 mg/kg/injection, schedule: Q01DX009 (ip), vehicle: Klucel (hydroxypropylcellulose) (HPC), higher = longer survival): 87 % of control
T/C [2]: 101 % of control

Oc1ccc(O)c(/C=N/NC(=S)NC2CC3CC2C2C=CCC32)c1 (centres undefined)
T/C (endpoint: median survival time, dose: 25.0 mg/kg/injection, schedule: Q01DX009 (ip), vehicle: olive oil, sesame oil, peanut oil, higher = longer survival): 87 % of control
T/C (endpoint: median survival time, dose: 50.0 mg/kg/injection, schedule: Q01DX009 (ip), vehicle: olive oil, sesame oil, peanut oil, higher = longer survival): 86 % of control
